Results as given in patent US12581252B2, “Substituted pyrrolo[3,4-b]pyridines as PI3K-α inhibitors” (Relay Therapeutics, Inc., priority 2020, dated 2026).

These compounds were tested against H1047R PIK3CA enzyme (Homo sapiens, UniProt P42336, H1047R) (assay: ADP-Glo Biochemical PIK3CA Kinase Assay).
Sequence of H1047R PIK3CA enzyme (P42336 whole entry H1047R): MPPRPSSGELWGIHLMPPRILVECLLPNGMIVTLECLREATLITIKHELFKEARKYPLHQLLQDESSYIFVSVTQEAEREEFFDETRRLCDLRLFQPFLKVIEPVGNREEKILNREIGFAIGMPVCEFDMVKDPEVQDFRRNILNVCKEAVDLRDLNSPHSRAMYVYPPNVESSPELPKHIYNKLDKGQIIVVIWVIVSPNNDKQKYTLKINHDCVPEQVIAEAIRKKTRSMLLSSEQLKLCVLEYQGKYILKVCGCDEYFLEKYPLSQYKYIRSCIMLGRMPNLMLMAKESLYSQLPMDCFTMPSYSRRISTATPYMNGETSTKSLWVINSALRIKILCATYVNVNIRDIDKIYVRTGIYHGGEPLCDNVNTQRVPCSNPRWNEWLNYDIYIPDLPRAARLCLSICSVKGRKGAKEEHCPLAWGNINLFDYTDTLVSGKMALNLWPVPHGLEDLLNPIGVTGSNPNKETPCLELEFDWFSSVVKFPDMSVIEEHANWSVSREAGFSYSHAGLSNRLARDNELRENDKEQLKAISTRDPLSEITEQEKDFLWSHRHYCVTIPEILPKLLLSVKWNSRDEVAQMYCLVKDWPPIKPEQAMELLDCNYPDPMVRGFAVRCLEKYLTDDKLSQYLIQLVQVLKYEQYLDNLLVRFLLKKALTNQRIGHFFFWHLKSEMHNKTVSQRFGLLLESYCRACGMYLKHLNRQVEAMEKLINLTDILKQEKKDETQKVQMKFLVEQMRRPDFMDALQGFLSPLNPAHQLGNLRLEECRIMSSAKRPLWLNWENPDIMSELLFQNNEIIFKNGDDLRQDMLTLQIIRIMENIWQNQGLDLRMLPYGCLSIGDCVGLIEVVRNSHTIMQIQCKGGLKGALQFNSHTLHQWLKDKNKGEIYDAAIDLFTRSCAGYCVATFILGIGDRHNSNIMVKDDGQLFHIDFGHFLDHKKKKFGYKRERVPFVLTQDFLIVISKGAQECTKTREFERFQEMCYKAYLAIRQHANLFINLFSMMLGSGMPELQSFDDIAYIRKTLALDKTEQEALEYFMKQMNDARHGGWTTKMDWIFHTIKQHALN
Sequence of H1047R PIK3CA enzyme (P27986 whole entry partner): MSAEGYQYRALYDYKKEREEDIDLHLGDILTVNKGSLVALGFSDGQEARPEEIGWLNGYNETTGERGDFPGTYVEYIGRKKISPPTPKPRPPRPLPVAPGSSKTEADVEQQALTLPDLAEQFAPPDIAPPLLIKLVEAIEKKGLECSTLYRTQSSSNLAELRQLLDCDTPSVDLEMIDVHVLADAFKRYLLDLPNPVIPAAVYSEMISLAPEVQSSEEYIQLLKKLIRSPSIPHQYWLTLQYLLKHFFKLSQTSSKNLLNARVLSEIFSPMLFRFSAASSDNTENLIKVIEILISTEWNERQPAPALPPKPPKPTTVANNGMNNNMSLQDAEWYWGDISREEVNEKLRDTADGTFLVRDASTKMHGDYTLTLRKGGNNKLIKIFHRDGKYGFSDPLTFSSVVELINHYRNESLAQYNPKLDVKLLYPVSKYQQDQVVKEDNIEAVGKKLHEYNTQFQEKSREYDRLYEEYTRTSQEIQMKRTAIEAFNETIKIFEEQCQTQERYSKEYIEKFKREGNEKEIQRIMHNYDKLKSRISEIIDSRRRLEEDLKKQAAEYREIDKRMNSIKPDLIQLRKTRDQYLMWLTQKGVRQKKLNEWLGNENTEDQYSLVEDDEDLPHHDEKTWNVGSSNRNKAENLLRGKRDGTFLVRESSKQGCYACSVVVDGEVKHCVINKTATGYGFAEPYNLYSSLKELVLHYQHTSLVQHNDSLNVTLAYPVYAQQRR

SMILES	IC50 [nM]
O=C1N[C@@H](c2cc(F)ccc2Cl)c2c(NC(=O)[C@H]3C[C@@H](O)C[C@@H](C(F)(F)F)C3)cc(Br)cc21 (single isomer, unassigned) [Compound I-2273]	10000 to 100000
Cc1ccccc1C1NC(=O)c2cc(C3(O)CCC3)cc(NC(=O)c3nsc4ccccc34)c21 (stereo not shown) [Compound I-419]	≤ 100
CC1(C)CC(COc2cc(NC(=O)c3cc(F)cc(C(F)(F)F)c3)c3c(c2)C(=O)NC3c2cc(F)ccc2Cl)O1 (stereo not shown) [Compound I-873]	100 to 500
CN(C)S(=O)(=O)c1cc(-c2ccc3ncnn3c2)cc2c1C(c1cc(F)ccc1Cl)NC2=O (stereo not shown) [Compound I-1968]	10000 to 100000
O=C(Nc1cc(-c2ccc3nnc(Cl)n3c2)cc2c1[C@H](c1cc(F)ccc1Cl)NC2=O)c1cc(F)cc(C(F)(F)F)c1 [Compound I-1734]	≤ 100
O=C(Cc1n[nH]c2ccccc12)Nc1cc(Br)cc2c1C(c1cc(F)ccc1Cl)NC2=O (stereo not shown) [Compound I-955]	10000 to 100000
O=C1N[C@@H](c2cc(F)ccc2Cl)c2c(NC(=O)N3C[C@H](O)C[C@@H](C(F)(F)F)C3)cccc21 (single isomer, unassigned) [Compound I-2237]	1000 to 10000
O=C(Nc1cc(-c2cc(F)n3ncnc3c2)cc2c1[C@@H](c1cc(F)ccc1Cl)NC2=O)c1cc(F)cc(C(F)(F)F)c1 [Compound I-1926]	1000 to 10000
Cc1ncc(-c2cc(NC(=O)c3cc(F)cc(Cl)c3)c3c(n2)C(=O)NC3c2cc(F)ccc2Cl)cn1 (stereo not shown) [Compound I-460]	100 to 500
Cc1ccccc1[C@H]1NC(=O)c2cc(CO)cc(NC(=O)c3nsc4ccccc34)c21 [Compound I-307]	1000 to 10000
O=C1NCc2c(NC(=O)N3CCCCC3Cc3ccccc3)cccc21 (stereo not shown) [Compound I-990]	10000 to 100000
O=C(Nc1cc(NC2=NC[C@@H](C(F)(F)F)O2)cc2c1[C@@H](c1cc(F)ccc1Cl)NC2=O)c1cc(F)cc(C(F)(F)F)c1 (single isomer, unassigned) [Compound I-2326]	1000 to 10000
O=C(Cc1cc(F)ccc1C(F)(F)F)Nc1cc(Br)cc2c1C(c1cc(F)ccc1Cl)NC2=O (stereo not shown) [Compound I-560]	1000 to 10000
O=C1NC(c2cc(F)ccc2Cl)c2c(NC(=O)C3CCc4ccccc4C3)cccc21 (mixture of isomers) [Compound I-2283]	10000 to 100000
CS(=O)(=O)C1CN(c2cc(NC(=O)c3cc(F)cc(C(F)(F)F)c3)c3c(n2)C(=O)NC3c2cc(F)ccc2Cl)C1 (stereo not shown) [Compound I-418]	100 to 500
Cc1ccccc1C1NC(=O)c2cccc(NC(=O)N3CCc4ccc(F)cc43)c21 (stereo not shown) [Compound I-96]	100 to 500
Cc1cc2nccnc2cc1-c1cc(NC(=O)c2cc(F)cc(C(F)(F)F)c2)c2c(c1)C(=O)NC2c1cc(F)ccc1Cl (stereo not shown) [Compound I-975]	100 to 500
O=C(Nc1cc(-c2cccnc2)cc2c1[C@H](c1cc(F)ccc1Cl)NC2=O)c1cc(F)cc(C(F)(F)F)c1 (stereo in doubt) [Compound I-1008]	1000 to 10000
O=C(Nc1cc(Br)cc2c1C(c1cc(F)c(F)cc1Cl)NC2=O)c1cc(F)cc(C(F)(F)F)c1 (stereo not shown) [Compound I-678]	≤ 100
O=C1NC(c2cc(F)ccc2Cl)c2c(NC(=O)N3CCc4cnccc43)cccc21 (stereo not shown) [Compound I-2191]	1000 to 10000
O=C1N[C@H](c2cc(F)ccc2Cl)c2c(NC(=O)N3C[C@@](O)(C(F)F)c4ccccc43)cccc21 (single isomer, unassigned) [Compound I-2484]	10000 to 100000
O=C(Nc1cc(NC(=O)c2cc(F)cc(C(F)(F)F)c2)c2c(c1)C(=O)NC2c1cc(F)ccc1Cl)c1cccnc1 (stereo not shown) [Compound I-1356]	≤ 100

SMILES	IC50 [nM]
O=C1N[C@@H](c2cc(F)ccc2Cl)c2c(NC(=O)N3C[C@](O)(C(F)(F)F)c4cc(F)ccc43)ccc(Cl)c21 (single isomer, unassigned) [Compound I-2619]	1000 to 10000
O=C(Nc1cc(/N=C2\OC[C@H]3CCCN23)cc2c1C(c1cc(F)ccc1Cl)NC2=O)c1cc(F)cc(C(F)(F)F)c1 (stereo partly shown) [Compound I-2354]	100 to 500
O=C(Nc1cccc2c1C(c1cc(F)ccc1Cl)NC2=O)c1coc2c1COC2 (stereo not shown) [Compound I-2265]	10000 to 100000
CNC1(c2cc(F)ccc2Cl)NC(=O)c2cc(C[S+](C)[O-])cc(NC(=O)c3cc(F)cc(C(F)(F)F)c3)c21 (stereo not shown) [Compound I-1138]	1000 to 10000
N#Cc1nc2cc(-c3cc(NC(=O)c4cc(F)cc(C(F)(F)F)c4)c4c(c3)C(=O)NC4c3cc(F)ccc3Cl)ccn2n1 (stereo not shown) [Compound I-1741]	≤ 100
CC(C)n1cc(-c2cc(NC(=O)c3cc(F)cc(C(F)(F)F)c3)c3c(c2)C(=O)N[C@H]3c2cc(F)ccc2Cl)ccc1=O [Compound I-743]	≤ 100
N#Cc1cnn2ccc(-c3cc(NC(=O)c4cc(F)cc(C(F)(F)F)c4)c4c(c3)C(=O)N[C@H]4c3cc(F)ccc3Cl)cc12 [Compound I-1799]	≤ 100
COc1cc(C(=O)Nc2cc(Br)cc3c2C(c2cc(F)ccc2C(F)F)NC3=O)cc(F)c1F (stereo not shown) [Compound I-436]	100 to 500
O=C(Nc1cc(-c2cn3ncnc3cn2)cc2c1[C@@H](c1cc(F)ccc1C(F)F)NC2=O)c1cc(F)cc(Cl)c1 (single isomer, unassigned) [Compound I-2258]	1000 to 10000
O=C(Nc1cc(-c2ccc3ncnn3c2)cc2c1[C@@H](c1cc(F)ccc1Cl)NC2=O)c1cc(F)cc(C(F)(F)F)c1 (single isomer, unassigned) [Compound I-943]	500 to 1000
O=C(Nc1cc(CS(=O)(=O)Nc2cccnc2)cc2c1C(c1cc(F)ccc1Cl)NC2=O)c1cc(F)cc(C(F)(F)F)c1 (stereo not shown) [Compound I-1402]	≤ 100
O=C(Nc1cc(Br)cc2c1C(c1cc(F)ccc1Cl)NC2=O)c1cc(O)cc(Cl)c1 (stereo not shown) [Compound I-1282]	100 to 500
O=C(Nc1cc(-c2cnn(-c3ncc(F)cn3)c2)cc2c1C(c1cc(F)ccc1Cl)NC2=O)c1cc(F)cc(C(F)(F)F)c1 (stereo not shown) [Compound I-1616]	≤ 100
COc1cc(F)cc(C(=O)Nc2cccc3c2C(c2ccccc2C)NC3=O)c1 (stereo not shown) [Compound I-340]	1000 to 10000
CC(C)(C#N)n1cc(-c2cc(NC(=O)N3C[C@@](O)(C(F)(F)F)c4cc(F)ccc43)c3c(c2)C(=O)N[C@H]3c2cc(F)ccc2Cl)cn1 (single isomer, unassigned) [Compound I-2612]	1000 to 10000
O=C(Nc1cc(Br)cc2c1C(c1cc(F)ccc1Cl)NC2=O)c1ccccc1 (stereo not shown) [Compound I-470]	10000 to 100000
O=C1N[C@@H](c2cc(F)ccc2Cl)c2c(NC(=O)N3C[C@](O)(C(F)(F)F)c4cc(F)ccc43)ccnc21 (single isomer, unassigned) [Compound I-2701]	1000 to 10000
Cc1ccccc1C1NC(=O)c2c(C#N)ccc(NC(=O)c3cc(F)cc(C(F)(F)F)c3)c21 (stereo not shown) [Compound I-313]	100 to 500
O=C(Nc1cc(CS(=O)(=O)N2CCC2)cc2c1C(c1cc(F)ccc1Cl)NC2=O)c1cc(F)cc(C(F)(F)F)c1 (stereo not shown) [Compound I-1399]	≤ 100
[2H]c1nc2cnc(-c3cc(NC(=O)c4cc(F)cc(C(F)(F)F)c4)c4c(c3)C(=O)NC4c3cc(F)ccc3Cl)cn2n1 (stereo not shown) [Compound I-2012]	≤ 100
O=C(Nc1cccc2c1C(Cc1ccccc1)NC2=O)c1cc(F)cc(C(F)(F)F)c1 (stereo not shown) [Compound I-1673]	10000 to 100000
O=C(Nc1cc(-c2ccn3ncnc3c2)cc2c1C(c1cc(F)ccc1O)NC2=O)c1cc(F)cc(C(F)(F)F)c1 (stereo not shown) [Compound I-1655]	1000 to 10000

SMILES	IC50 [nM]
Cc1cc2ncnn2cc1-c1cc(NC(=O)c2cc(F)cc(C(F)(F)F)c2)c2c(c1)C(=O)N[C@@H]2c1cc(F)ccc1Cl [Compound I-1873]	1000 to 10000
O=C(Nc1cc(Br)cc2c1C(c1cc(F)ccc1Cl)NC2=O)c1cccc(SC(F)F)c1 (stereo not shown) [Compound I-1386]	1000 to 10000
Cn1cc(C(=O)Nc2cc(NC(=O)c3cc(F)cc(C(F)(F)F)c3)c3c(c2)C(=O)NC3c2cc(F)ccc2Cl)cn1 (stereo not shown) [Compound I-336]	≤ 100
Cc1ncc(-c2cc(NC(=O)c3cc(F)cc(C(F)(F)F)c3)c3c(c2)C(=O)N[C@@H]3c2cc(F)ccc2Cl)cn1 [Compound I-783]	1000 to 10000
O=C1NC(c2cc(F)ccc2Cl)c2c(NC(=O)N3CCCC(F)C3)cc(Br)cc21 (stereo not shown) [Compound I-491]	10000 to 100000
O=C1NC(c2cc(F)ccc2Cl)c2c(NC(=O)C3CCCCC3)cccc21 (stereo not shown) [Compound I-1680]	1000 to 10000
Cc1ncccc1-c1cc(NC(=O)c2cc(F)cc(C(F)(F)F)c2)c2c(c1)C(=O)NC2c1cc(F)ccc1Cl (stereo not shown) [Compound I-1152]	≤ 100
CN(C(=O)Nc1cccc2c1C(c1cc(F)ccc1Cl)NC2=O)c1ccc(F)cc1 (stereo not shown) [Compound I-2435]	10000 to 100000
Nc1c(Cl)cc(F)cc1C(=O)Nc1cc(Br)cc2c1C(c1cc(F)ccc1Cl)NC2=O (stereo not shown) [Compound I-843]	100 to 500
O=C(Nc1cc(-c2csc(C(=O)O)n2)cc2c1C(c1cc(F)ccc1Cl)NC2=O)c1cc(F)cc(C(F)(F)F)c1 (stereo not shown) [Compound I-1201]	≤ 100
CC(=O)N[C@@H]1CCC[C@H](C(=O)Nc2cc(-c3ccc4ncnn4c3)cc3c2C(c2cc(F)ccc2Cl)NC3=O)C1 (mixture of isomers) [Compound I-1842]	10000 to 100000
O=C1NC(c2cc(F)ccc2Cl)c2c(Nc3cccc4ccccc34)cc(Br)cc21 (stereo not shown) [Compound I-1682]	1000 to 10000
O=C(Nc1cc(Br)cc2c1C(c1cc(F)ccc1C(F)F)NC2=O)c1cc(F)cc(C(F)(F)F)c1 (stereo not shown) [Compound I-206]	≤ 100
O=C(Nc1cc(Br)cc2c1C(c1cc(F)ccc1Cl)NC2=O)c1ccccc1F (stereo not shown) [Compound I-466]	10000 to 100000
N#Cc1cnc2cc(F)c(-c3cc(NC(=O)c4cc(F)cc(C(F)(F)F)c4)c4c(c3)C(=O)NC4c3cc(F)ccc3Cl)cn12 (stereo not shown) [Compound I-1838]	≤ 100
O=C(Nc1cc(Cl)nc2c1[C@H](c1cc(F)ccc1Cl)NC2=O)c1cc(F)cc(C(F)(F)F)c1 [Compound I-616]	100 to 500
N#CCn1cc(-c2cc(NC(=O)c3cc(F)cc(C(F)(F)F)c3)c3c(c2)C(=O)NC3c2cc(F)ccc2Cl)cn1 (stereo not shown) [Compound I-1420]	≤ 100
Cc1ccc2c(c1)N(C(=O)Nc1cccc3c1CN(C)C3=O)CC2 [Compound I-405]	10000 to 100000
COc1ccccc1-c1cc(NC(=O)c2cc(F)cc(C(F)(F)F)c2)c2c(c1)C(=O)NC2c1cc(F)ccc1Cl (stereo not shown) [Compound I-1197]	100 to 500
CC(C)(O)c1cc(NC(=O)c2cc(F)cc(C(F)(F)F)c2)c2c(c1)C(=O)N[C@@H]2c1cc(F)ccc1Cl [Compound I-190]	1000 to 10000
